Measured values reported in patent publication US11053204B2, “Pyrimidinyloxy benzene derivatives as herbicides” (FMC Corporation, priority 2015, dated 2021).

Columns and labels:
Type in all cases: in vivo
[1] = test system: blackgrass (Alopecurus myosuroides); test: Test A postemergence, visual injury rating; conditions: Alopecurus myosuroides, post-emergence, 240 h, 0 is no effect, 100 is complete control, read-out: Blackgrass plant response rating (0 to 100 scale)
How it was run: (§1)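 Greenhouse pot test, loam/sand soil. Formulation: non-phytotoxic solvent mix plus surfactant. Pre: directed spray onto soil after sowing. Post: plants at 1–2 leaf, 2–10 cm. Rated visually vs untreated controls at ~10 d, 0 (no effect) to 100 (complete control).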

[2] = test system: galium (catchweed bedstraw, Galium aparine); test: Test A postemergence, visual injury rating; conditions: Galium, post-emergence, 240 h, 0 is no effect, 100 is complete control, read-out: Galium plant response rating (0 to 100 scale)
How it was run: as §1

[3] = test system: barnyardgrass (Echinochloa crus-galli); test: Test A postemergence, visual injury rating; conditions: Echinochloa crus-galli, post-emergence, 240 h, 0 is no effect, 100 is complete control, read-out: Barnyardgrass plant response rating (0 to 100 scale)
How it was run: as §1

[4] = test system: oilseed rape (Brassica napus); test: Test C preemergence, plant response rating; conditions: Brassica napus, pre-emergence, Preemergence
How it was run: (§2)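 Greenhouse plants rated visually against untreated controls 13–15 d after treatment, scale 0 = no effect to 100 = complete control. Postemergence sprays went onto potted plants 2–18 cm tall (1–4 leaves); preemergence sprays onto soil freshly sown in loam–sand or silt loam, chemicals formulated in non-phytotoxic solvent with surfactant.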

[5] = test system: blackgrass (Alopecurus myosuroides); test: Test C preemergence, plant response rating; conditions: Alopecurus myosuroides, pre-emergence, Preemergence
How it was run: as §2

[6] = test system: wheat (winter wheat, Triticum aestivum); test: Test C preemergence, plant response rating; conditions: Triticum aestivum, pre-emergence, Preemergence
How it was run: as §2

[7] = test system: waterhemp (common waterhemp, Amaranthus rudis); test: Test C preemergence, plant response rating; conditions: Amaranthus tuberculatus, pre-emergence, Preemergence
How it was run: as §2

soybean (Glycine max) = test: Test C preemergence, plant response rating; conditions: Glycine max, pre-emergence, Preemergence
How it was run: as §2

[8] = test system: ryegrass, Italian (Italian ryegrass, Lolium multiflorum); test: Test C preemergence, plant response rating; conditions: Lolium multiflorum, pre-emergence, Preemergence
How it was run: as §2

[9] = test system: velvetleaf (Abutilon theophrasti); test: Test C preemergence, plant response rating; conditions: Abutilon theophrasti, pre-emergence, Preemergence
How it was run: as §2

[10] = test system: nutsedge, yellow (yellow nutsedge, Cyperus esculentus); test: Test C preemergence, plant response rating; conditions: Cyperus, pre-emergence, Preemergence
How it was run: as §2

[11] = test system: crabgrass, large (large crabgrass, Digitaria sanguinalis); test: Test C preemergence, plant response rating; conditions: Digitaria sanguinalis, pre-emergence, Preemergence
How it was run: as §2

[12] = test system: morningglory (Ipomoea coccinea); test: Test C preemergence, plant response rating; conditions: Ipomoea, pre-emergence, Preemergence
How it was run: as §2

corn (Zea mays) = test: Test C preemergence, plant response rating; conditions: Zea mays, pre-emergence, Preemergence
How it was run: as §2

[13] = test system: foxtail, giant (giant foxtail, Setaria faberii); test: Test C preemergence, plant response rating; conditions: Setaria faberi, pre-emergence, Preemergence
How it was run: as §2

[14] = test system: ragweed (common ragweed, Ambrosia elatior); test: Test C preemergence, plant response rating; conditions: Ambrosia artemisiifolia, pre-emergence, Preemergence
How it was run: as §2

[15] = test system: lambsquarters (Chenopodium album); test: Test C preemergence, plant response rating; conditions: Chenopodium album, pre-emergence, Preemergence
How it was run: as §2

## O=C(OCCCC(F)(F)F)c1c(Br)cccc1Oc1ncc(Cl)cn1 [Compound 20, 4,4,4-trifluorobutyl 2-bromo-6-[(5-chloro-2-pyrimidinyl)oxy]benzoate]
[1]; 125 g ai/ha
  pest or weed control at 125 g/ha: 30%
[1]; 500 g ai/ha
  pest or weed control at 500 g/ha: 50%
[2]; 125 g ai/ha
  pest or weed control at 125 g/ha: 10%
[2]; 500 g ai/ha
  pest or weed control at 500 g/ha: 90%
[3]; 125 g ai/ha
  pest or weed control at 125 g/ha: 30%
[3]; 500 g ai/ha
  pest or weed control at 500 g/ha: 100%
[4]; 125 g ai/ha, scale of 0 to 100
  plant injury at 125 g/ha: 50%
[4]; 16 g ai/ha, scale 0 to 100
  plant injury at 16 g/ha: 0%
[4]; 31 g ai/ha, scale 0 to 100
  plant injury at 31 g/ha: 0%
[4]; 62 g ai/ha, scale 0 to 100
  plant injury at 62 g/ha: 50%
[5]; 62 g ai/ha, scale of 0 to 100
  pest or weed control at 62 g/ha: 85%
[5]; 125 g ai/ha, scale of 0 to 100
  pest or weed control at 125 g/ha: 100%
[5]; 16 g ai/ha, scale 0 to 100
  pest or weed control at 16 g/ha: 0%
[5]; 31 g ai/ha, scale 0 to 100
  pest or weed control at 31 g/ha: 40%
[6]; 125 g ai/ha, scale of 0 to 100
  plant injury at 125 g/ha: 5%
[6]; 16 g ai/ha, scale 0 to 100
  plant injury at 16 g/ha: 0%
[6]; 31 g ai/ha, scale 0 to 100
  plant injury at 31 g/ha: 0%
[6]; 62 g ai/ha, scale 0 to 100
  plant injury at 62 g/ha: 0%
[7]; 125 g ai/ha, scale of 0 to 100
  pest or weed control at 125 g/ha: 98%
[7]; 16 g ai/ha, scale 0 to 100
  pest or weed control at 16 g/ha: 30%
[7]; 31 g ai/ha, scale 0 to 100
  pest or weed control at 31 g/ha: 85%
[7]; 62 g ai/ha, scale 0 to 100
  pest or weed control at 62 g/ha: 100%
Soybean (Glycine max); 125 g ai/ha, scale of 0 to 100
  plant injury at 125 g/ha: 10%
Soybean (Glycine max); 16 g ai/ha, scale 0 to 100
  plant injury at 16 g/ha: 0%
Soybean (Glycine max); 31 g ai/ha, scale 0 to 100
  plant injury at 31 g/ha: 0%
Soybean (Glycine max); 62 g ai/ha, scale 0 to 100
  plant injury at 62 g/ha: 0%
[8]; 125 g ai/ha, scale of 0 to 100
  pest or weed control at 125 g/ha: 70%
[8]; 16 g ai/ha, scale 0 to 100
  pest or weed control at 16 g/ha: 0%
[8]; 31 g ai/ha, scale 0 to 100
  pest or weed control at 31 g/ha: 0%
[8]; 62 g ai/ha, scale 0 to 100
  pest or weed control at 62 g/ha: 30%
[9]; 125 g ai/ha, scale of 0 to 100
  pest or weed control at 125 g/ha: 50%
[9]; 16 g ai/ha, scale 0 to 100
  pest or weed control at 16 g/ha: 0%
[9]; 31 g ai/ha, scale 0 to 100
  pest or weed control at 31 g/ha: 0%
[9]; 62 g ai/ha, scale 0 to 100
  pest or weed control at 62 g/ha: 5%
[10]; 125 g ai/ha, scale of 0 to 100
  pest or weed control at 125 g/ha: 10%
[10]; 16 g ai/ha, scale 0 to 100
  pest or weed control at 16 g/ha: 0%
[10]; 31 g ai/ha, scale 0 to 100
  pest or weed control at 31 g/ha: 0%
[10]; 62 g ai/ha, scale 0 to 100
  pest or weed control at 62 g/ha: 0%
[11]; 62 g ai/ha, scale of 0 to 100
  pest or weed control at 62 g/ha: 98%
[11]; 125 g ai/ha, scale of 0 to 100
  pest or weed control at 125 g/ha: 100%
[11]; 16 g ai/ha, scale 0 to 100
  pest or weed control at 16 g/ha: 5%
[11]; 31 g ai/ha, scale 0 to 100
  pest or weed control at 31 g/ha: 50%
[12]; 125 g ai/ha, scale of 0 to 100
  pest or weed control at 125 g/ha: 10%
[12]; 16 g ai/ha, scale 0 to 100
  pest or weed control at 16 g/ha: 0%
[12]; 31 g ai/ha, scale 0 to 100
  pest or weed control at 31 g/ha: 0%
[12]; 62 g ai/ha, scale 0 to 100
  pest or weed control at 62 g/ha: 5%
Corn (Zea mays); 62 g ai/ha, scale of 0 to 100
  Corn plant response rating (crop injury, 0 = no effect, 100 = complete kill) at 62 g/ha: 0%
Corn (Zea mays); 125 g ai/ha, scale of 0 to 100
  Corn plant response rating (crop injury, 0 = no effect, 100 = complete kill) at 125 g/ha: 30%
Corn (Zea mays); 16 g ai/ha, scale 0 to 100
  Corn plant response rating (crop injury, 0 = no effect, 100 = complete kill) at 16 g/ha: 0%
Corn (Zea mays); 31 g ai/ha, scale 0 to 100
  Corn plant response rating (crop injury, 0 = no effect, 100 = complete kill) at 31 g/ha: 0%
[13]; 62 g ai/ha, scale of 0 to 100
  pest or weed control at 62 g/ha: 90%
[13]; 125 g ai/ha, scale of 0 to 100
  pest or weed control at 125 g/ha: 100%
[13]; 16 g ai/ha, scale 0 to 100
  pest or weed control at 16 g/ha: 35%
[13]; 31 g ai/ha, scale 0 to 100
  pest or weed control at 31 g/ha: 50%
[14]; 125 g ai/ha, scale of 0 to 100
  pest or weed control at 125 g/ha: 0%
[14]; 16 g ai/ha, scale 0 to 100
  pest or weed control at 16 g/ha: 0%
[14]; 31 g ai/ha, scale 0 to 100
  pest or weed control at 31 g/ha: 0%
[14]; 62 g ai/ha, scale 0 to 100
  pest or weed control at 62 g/ha: 0%
[15]; 125 g ai/ha, scale of 0 to 100
  pest or weed control at 125 g/ha: 90%
[15]; 16 g ai/ha, scale 0 to 100
  pest or weed control at 16 g/ha: 0%
[15]; 31 g ai/ha, scale 0 to 100
  pest or weed control at 31 g/ha: 5%
[15]; 62 g ai/ha, scale 0 to 100
  pest or weed control at 62 g/ha: 10%
